Data as given in patent US4162307A, “Method for anaesthesia by use of a pentapeptide” (priority 1977, dated 1979).
Counter-ions that a name gives are not always drawn.

What was measured:
[1] = test system: righting, pinnal and corneal reflexes; assay: Anaesthesia in laboratory animals (abolition of reflexes), standard pharmacological procedures; type: in vivo, rats and mice
[2] = test system: castor oil-induced diarrhoea; assay: Antidiarrhoeal activity in the rat (castor oil); type: in vivo
Procedure: (B) Antidiarrhoeal activity in the rat. In this procedure rats were straved for 24 hours, the peptide then administered either subcutaneously or orally followed after 15 minutes by 1 ml castor oil per rat given orally.
(§1) From the data obtained the respective ED50 figures were calculated (i.e. the dose required to elicit the appropriate effect in 50% of the animals). N.T.: not tested.

mouse hot plate = assay: Analgesia in mice in the hot plate test; type: in vivo
Procedure: (A) Analgesia in mice in the hot plate test (modification of the method of Eddy, N. B. et al., J. Pharm. Exp. Therap. (1953) 107, 385, the peptide being administered by intracerebroventricular injection).
as §1

[3] = test system: righting, pinnal and corneal reflexes; assay: Anaesthetic effects following intracerebroventricular injection in mice (loss of righting, pinnal and corneal reflexes); type: in vivo; conditions: mouse, loss of all three reflexes
[4] = test system: righting, pinnal and corneal reflexes; assay: Anaesthetic effects tested intravenously; type: in vivo, mice; conditions: loss of all three reflexes
Procedure: (D) Compounds are tested for anaesthetic effects following intracerebroventricular injection in mice. The animals are observed for loss of righting reflex (failure to roll over within 10 seconds of being turned on their backs), loss of pinnal reflex (failure to flick the ear in response to a light touch at the base of the pinna) and loss of corneal reflex (failure to blink when the cornea is touched lightly). Loss of all three reflexes constitutes anaesthesia. In addition, any other effects are noted. […] Interesting compounds are then tested intravenously in the same manner.
as §1

[5] = test system: citric acid aerosol-induced coughs; assay: Antitussive testing, citric acid aerosol; type: in vivo, guinea-pigs
Procedure: J. Pharmacol, 39, (1970) 225.
(C) For antitussive testing, guinea-pigs are subjected to an aerosol containing 20% citric acid, 30 minutes after administration of compound (orally or subcutaneously). The number of coughs during a five minute exposure are counted and meaned for six animals per treatment. The method is that described by Boura, A. L. A., Green, A. F. and Saunders, I. A. Br. J. Pharmac., May 1970, Vol. 39, No. 1, page 225.
as §1

[6] = test system: isolated mouse vas deferens; assay: Neurally evoked contractions of the isolated mouse vas deferens
[7] = test system: isolated guinea-pig ileum; assay: Electrically-induced contractions of the isolated guinea-pig ileum; conditions: 0.1 Hz; 0.4 ms; 30-40 V
Source text: (Each intestinal segment was impaled by the anode and suspended with a 2-3 g load. Stimulus parameters: frequency: 0.1 Hz; duration: 0.4 ms; voltage (supramaximal) 30-40 V; the contractions were transduced isotonically).

CN1CC[C@]23c4c5ccc(O)c4O[C@H]2[C@@H](O)C=C[C@H]3[C@H]1C5 [morphine, reference compound]
Effect on the righting reflex, morphine by acute bolus injection ([1]; mice, acute bolus injection in up to lethal doses): does not abolish the righting reflex

CCNC(=O)[C@@H](CC(C)C)NC(=O)[C@H](Cc1ccccc1)NC(=O)CNC(=O)[C@@H](C)NC(=O)[C@@H](N)Cc1ccc(O)cc1 [H.Tyr.D-Ala.Gly.Phe.D-Leu.NHEt hydrochloride]
ED50 anti-diarrhoea ([2]; rat, s.c., castor oil 1 ml orally 15 minutes after peptide): 10 mg/kg
ED50 mouse hot plate, analgesia (mouse hot plate; i.c.v., dose eliciting the effect in 50% of the animals): 0.03 μg/mouse
ED50 anaesthesia i.c.v. [3]: 2.8 μg/mouse
ED50 anaesthesia i.v. [4]: 20 mg/kg
ED50 antitussive ([5]; guinea-pig, 20% citric acid aerosol 30 minutes after administration, route not printed in table (orally or subcutaneously)): 2.0 mg/kg

CCNC(=O)[C@@H](CC(C)C)NC(=O)[C@H](Cc1ccccc1)NC(=O)CNC(=O)[C@@H](C)NC(=O)[C@@H](N)Cc1ccc(O)cc1 [peptide of formula (I), h.tyr.D-Ala.Gly.Phe.D-Leu.NHEt]
Antidiarrhoeal activity ([2]; rats, castor oil-induced diarrhoea): effective in reducing castor oil-induced diarrhoea
Naloxone sensitivity of analgesic activity (mouse hot plate; mice, hot plate, naloxone): abolished by naloxone
Analgesic activity, hot plate (mouse hot plate; mice, intracerebroventricular injection): exhibits analgesic activity
Reversal of reflex-abolishing effects by naloxone ([1]; effects (i), (ii) and (iii), naloxone administered): may be reversed by administration of the known narcotic antagonist naloxone
Effect on the corneal reflex ([1]; laboratory animals): Abolition of the corneal reflex
Effect on the pinnal reflex ([1]; laboratory animals): Abolition of the pinnal reflex
Effect on the righting reflex ([1]; laboratory animals): Abolition of the righting reflex
Induction and maintenance of anaesthesia ([1]; rats and mice, parenteral, e.g. intravenous or intracerebroventricular injection): both to induce and to maintain anaesthesia
Naloxone sensitivity of vas deferens inhibition ([6]; naloxone): abolished by the known narcotic antagonist naloxone
Effect on neurally evoked contractions of isolated mouse vas deferens ([6]; pulses at 0.1 Hz): Inhibition of neurally evoked contractions
Effect on electrically-induced contractions of isolated guinea-pig ileum [7]: Reduction of electrically-induced contractions
Antitussive activity ([5]; guinea-pigs): exhibits antitussive activity
